Assay results reported in patent publication US20240368150A1 (Hoffmann-La Roche Inc., priority 2021, published 2024).
Where two headings read alike, the source gives them in different places.

Legend:
primary human T-cells [1] = test: Proliferation assay after 5 days (CellTiter-Glo, CD3 stimulation; PBS counter screen); type: cell-based; conditions: Homo sapiens, T-cell, 120 h, CD3 stimulation; for Emax: 5 days, normalized to reference compound A1 as stimulator control = 100%, DMSO neutral control, read-out: Emax proliferation (% activation); for EC50: primary human T-cells, CellTiter-Glo after 5 days, EC50 of fitted sigmoidal curve, read-out: Tcell Proliferation CD3 EC50
Outline: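 ATP-based luminescence (CellTiter-Glo 2.0, room temperature) measured proliferation 5 days after compound addition to CD3-stimulated or unstimulated primary human T-cells. Flags marked compounds that lowered viability or activated unstimulated cells.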

primary human T-cells [2] = system: primary human T-cells

Structure (SMILES) | EC50 (primary human T-cells [2]) [nM] | Emax (primary human T-cells [1]) [%] | EC50 (primary human T-cells [1]) [nM]
CN[C@@H](C)C(=O)N[C@H]1CS(=O)(=O)c2cc(F)c(-c3nnc(CC(F)(F)F)o3)cc2N(Cc2ccc(OC(F)(F)F)cc2)C1=O [Example 61, (2S)—N-[(3R)-8-fluoro-1,1,4-trioxo-7-[5-(2,2,2-trifluoroethyl)-1,3,4-oxadiazol-2-yl]-5-[[4-(trifluoromethoxy)phenyl]methyl]-2,3-dihydro-1λ^6,5-benzothiazepin-3-yl]-2-(methylamino)propanamide] | 1910 | 144 | 625
CC(C)(CN1CCCC1=O)c1nnc(-c2cc3c(cc2F)S(=O)(=O)C[C@H](N)C(=O)N3Cc2ccc(Cl)cc2)o1 [Example 64, (3R)-3-amino-5-[(4-chlorophenyl)methyl]-7-[5-[1,1-dimethyl-2-(2-oxopyrrolidin-1-yl)ethyl]-1,3,4-oxadiazol-2-yl]-8-fluoro-1,1-dioxo-2,3-dihydro-1λ^6,5-benzothiazepin-4-one] | 4350 | 36 | > 10000
N[C@H]1CS(=O)(=O)c2cc(F)c(-c3nnc(C4(CO)CC4)o3)cc2N(Cc2ccc(Cl)cc2)C1=O [Example 65, (3R)-3-amino-5-[(4-chlorophenyl)methyl]-8-fluoro-7-[5-[1-(hydroxymethyl)cyclopropyl]-1,3,4-oxadiazol-2-yl]-1,1-dioxo-2,3-dihydro-1λ^6,5-benzothiazepin-4-one] | 3850 | 77 | 1060
CC(C)(CN1CCCCC1=O)c1nnc(-c2cc3c(cc2F)S(=O)(=O)C[C@H](N)C(=O)N3Cc2ccc(Cl)cc2)o1 [Example 66, (3R)-3-amino-5-[(4-chlorophenyl)methyl]-7-[5-[1,1-dimethyl-2-(2-oxo-1-piperidyl)ethyl]-1,3,4-oxadiazol-2-yl]-8-fluoro-1,1-dioxo-2,3-dihydro-1λ^6,5-benzothiazepin-4-one] | 1330 | 112 | 2070
N[C@H]1CS(=O)(=O)c2cc(F)c(-c3nnc(CC(F)(F)F)o3)cc2N(Cc2ccc(Cl)cc2)C1=O [Example 68, (3R)-3-Amino-5-[(4-chlorophenyl)methyl]-8-fluoro-1,1-dioxo-7-[5-(2,2,2-trifluoroethyl)-1,3,4-oxadiazol-2-yl]-2,3-dihydro-1λ^6,5-benzothiazepin-4-one] | > 20000 | 91 | 5140
CC(C)(N)c1nnc(-c2cc3c(cc2F)S(=O)(=O)C[C@H](N)C(=O)N3Cc2ccc(Cl)cc2)o1 [Example 69] | 1670 | 171 | 4770
N[C@H]1CS(=O)(=O)c2cc(F)c(-c3nnc(CC(F)F)o3)cc2N(Cc2ccc(Cl)cc2)C1=O [Example 71, (3R)-3-Amino-5-[(4-chlorophenyl)methyl]-7-[5-(2,2-difluoroethyl)-1,3,4-oxadiazol-2-yl]-8-fluoro-1,1-dioxo-2,3-dihydro-1λ^6,5-benzothiazepin-4-one] | > 20000 | 71 | < 162
N[C@H]1CS(=O)(=O)c2cc(F)c(-c3nnc(C4CCCC4(F)F)o3)cc2N(Cc2ccc(Cl)cc2)C1=O (stereo partly drawn) [Example 76, (3R)-3-Amino-5-[(4-chlorophenyl)methyl]-7-[5-(2,2-difluorocyclopentyl)-1,3,4-oxadiazol-2-yl]-8-fluoro-1,1-dioxo-2,3-dihydro-1λ^6,5-benzothiazepin-4-one] | 749 | 173 | 1080
N[C@H]1CS(=O)(=O)c2cc(F)c(-c3nnc(CC4CCOCC4)o3)cc2N(Cc2ccc(Cl)cc2)C1=O [Example 78, (3R)-3-Amino-5-[(4-chlorophenyl)methyl]-8-fluoro-1,1-dioxo-7-[5-(tetrahydropyran-4-ylmethyl)-1,3,4-oxadiazol-2-yl]-2,3-dihydro-1λ^6,5-benzothiazepin-4-one] | 2350 | 86 | 1110
N[C@H]1CS(=O)(=O)c2cc(F)c(-c3nnc(C4CCC4(F)F)o3)cc2N(Cc2ccc(Cl)cc2)C1=O (stereo partly drawn) [Example 81, (3R)-3-Amino-5-[(4-chlorophenyl)methyl]-7-[5-(2,2-difluorocyclobutyl)-1,3,4-oxadiazol-2-yl]-8-fluoro-1,1-dioxo-2,3-dihydro-1λ^6,5-benzothiazepin-4-one] | 1270 | 185 | 521
N[C@H]1CS(=O)(=O)c2cc(F)c(-c3nnc(C4CCOCC4)o3)cc2N(Cc2ccc(Cl)cc2)C1=O [Example 82, (3R)-3-Amino-5-[(4-chlorophenyl)methyl]-8-fluoro-1,1-dioxo-7-(5-tetrahydropyran-4-yl-1,3,4-oxadiazol-2-yl)-2,3-dihydro-1λ^6,5-benzothiazepin-4-one] | 631 | 148 | 728

The next compounds have a lower EC50 (primary human T-cells [2]) than those just listed; values first:

EC50 (primary human T-cells [2]) [nM] | Structure (SMILES) | Emax (primary human T-cells [1]) [%] | EC50 (primary human T-cells [1]) [nM]
< 162 | N[C@H]1CS(=O)(=O)c2cc(F)c(-c3nnc(C4CCCCC4(F)F)o3)cc2N(Cc2ccc(OC(F)(F)F)cc2)C1=O (stereo partly drawn) [Example 53, (3R)-3-amino-7-[5-(2,2-difluorocyclohexyl)-1,3,4-oxadiazol-2-yl]-8-fluoro-1,1-dioxo-5-[[4-(trifluoromethoxy)phenyl]methyl]-2,3-dihydro-1λ^6,5-benzothiazepin-4-one] | 243 | < 162
53.2 | N[C@H]1CS(=O)(=O)c2cc(F)c(-c3nnc(C4CCCC(F)(F)C4)o3)cc2N(Cc2ccc(OC(F)(F)F)cc2)C1=O (stereo partly drawn) [Example 55, (3R)-3-Amino-7-[5-(3,3-difluorocyclohexyl)-1,3,4-oxadiazol-2-yl]-8-fluoro-1,1-dioxo-5-[[4-(trifluoromethoxy)phenyl]methyl]-2,3-dihydro-1λ^6,5-benzothiazepin-4-one] | 282 | 50.7
220 | NC(c1nnc(-c2cc3c(cc2F)S(=O)(=O)C[C@H](N)C(=O)N3Cc2ccc(OC(F)(F)F)cc2)o1)C(F)(F)F (stereo partly drawn) [Example 58, (3R)-3-amino-7-[5-(1-amino-2,2,2-trifluoro-ethyl)-1,3,4-oxadiazol-2-yl]-8-fluoro-1,1-dioxo-5-[[4-(trifluoromethoxy)phenyl]methyl]-2,3-dihydro-1λ^6,5-benzothiazepin-4-one] | 126 | 684
79.9 | CC(C)(C#N)c1nnc(-c2cc3c(cc2F)S(=O)(=O)C[C@H](N)C(=O)N3Cc2ccc(OC(F)(F)F)cc2)o1 [Example 59] | 94 | 54.5
535 | Cc1nnc(-c2nnc(-c3cc4c(cc3F)S(=O)(=O)C[C@H](N)C(=O)N4Cc3ccc(OC(F)(F)F)cc3)o2)o1 [Example 60, (3R)-3-amino-8-fluoro-7-[5-(5-methyl-1,3,4-oxadiazol-2-yl)-1,3,4-oxadiazol-2-yl]-1,1-dioxo-5-[[4-(trifluoromethoxy)phenyl]methyl]-2,3-dihydro-1λ^6,5-benzothiazepin-4-one] | 110 | 320
199 | N[C@H]1CS(=O)(=O)c2cc(F)c(-c3nnc(CCC(F)(F)F)o3)cc2N(Cc2ccc(Cl)cc2)C1=O [Example 67, (3R)-3-Amino-5-[(4-chlorophenyl)methyl]-8-fluoro-1,1-dioxo-7-[5-(3,3,3-trifluoropropyl)-1,3,4-oxadiazol-2-yl]-2,3-dihydro-1λ^6,5-benzothiazepin-4-one] | 165 | 112
74.6 | CC(C)(F)c1nnc(-c2cc3c(cc2F)S(=O)(=O)C[C@H](N)C(=O)N3Cc2ccc(Cl)cc2)o1 [Example 70, (3R)-3-Amino-5-[(4-chlorophenyl)methyl]-8-fluoro-7-[5-(1-fluoro-1-methyl-ethyl)-1,3,4-oxadiazol-2-yl]-1,1-dioxo-2,3-dihydro-1λ^6,5-benzothiazepin-4-one] | 255 | 214
50.2 | N[C@H]1CS(=O)(=O)c2cc(F)c(-c3nnc(C4CCC(F)(F)CC4)o3)cc2N(Cc2ccc(Cl)cc2)C1=O [Example 73, (3R)-3-Amino-5-[(4-chlorophenyl)methyl]-7-[5-(4,4-difluorocyclohexyl)-1,3,4-oxadiazol-2-yl]-8-fluoro-1,1-dioxo-2,3-dihydro-1λ^6,5-benzothiazepin-4-one] | 194 | 126
114 | N[C@H]1CS(=O)(=O)c2cc(F)c(-c3nnc(C4CCC(F)(F)C4)o3)cc2N(Cc2ccc(Cl)cc2)C1=O (stereo partly drawn) [Example 75, (3R)-3-Amino-5-[(4-chlorophenyl)methyl]-7-[5-(3,3-difluorocyclopentyl)-1,3,4-oxadiazol-2-yl]-8-fluoro-1,1-dioxo-2,3-dihydro-1λ^6,5-benzothiazepin-4-one] | 161 | 35.1
341 | N[C@H]1CS(=O)(=O)c2cc(F)c(-c3nnc(CC4CC(F)(F)C4)o3)cc2N(Cc2ccc(Cl)cc2)C1=O [Example 77, (3R)-3-Amino-5-[(4-chlorophenyl)methyl]-7-[5-[(3,3-difluorocyclobutyl)methyl]-1,3,4-oxadiazol-2-yl]-8-fluoro-1,1-dioxo-2,3-dihydro-1λ^6,5-benzothiazepin-4-one] | 183 | 
176 | N[C@H]1CS(=O)(=O)c2cc(F)c(-c3nnc(C4CC(F)(F)C4)o3)cc2N(Cc2ccc(Cl)cc2)C1=O [Example 80, (3R)-3-Amino-5-[(4-chlorophenyl)methyl]-7-[5-(3,3-difluorocyclobutyl)-1,3,4-oxadiazol-2-yl]-8-fluoro-1,1-dioxo-2,3-dihydro-1λ^6,5-benzothiazepin-4-one] | 278 | 81.5
470 | N[C@H]1CS(=O)(=O)c2cc(F)c(-c3nnc(CCF)o3)cc2N(Cc2ccc(Cl)cc2)C1=O [Example 83, (3R)-3-Amino-5-[(4-chlorophenyl)methyl]-8-fluoro-7-[5-(2-fluoroethyl)-1,3,4-oxadiazol-2-yl]-1,1-dioxo-2,3-dihydro-1λ^6,5-benzothiazepin-4-one] | 27 | > 20000
